{"source": "patent US8148431B2", "about": "“Osteogenesis promoter containing β-cryptoxanthin as the active ingredient” (Kemin Health, L.C., priority 2002, dated 2012)", "key": {"[1]": {"tested_on": "rats, femoral metaphysis tissue", "test": "Oral administration to rats: bone alkaline phosphatase activity in metaphysis tissue", "assay_type": "in vivo, Wistar male rats", "conditions": "for Bone alkaline phosphatase activity: metaphysis tissue", "procedure": "(§1) The expression level of alkaline phosphatase, which is the most important enzyme for the acceleration of the calcification of bones, was examined. The tissue pieces cultured in the incubator were washed in 0.25 M sucrose solution, then pulverized in 3 ml of 65 mM barbital buffer (pH 7-4) and treated with ultrasonic waves. The resultant liquid was centrifuged. The supernatant, as the enzyme solution, was determined by a method of Walter ad Schutt in Method of Enzymatic Analysis, Vol. 1-2, p. 856, Academic Press, New York, 1965). Namely, this method was carried out as follows: p-nitrophenylphosphoric acid was used as the substrate. 0.05 ml of the enzyme solution was added to 2 ml of diethanolamine buffer (pH 9.8). After the incubation at 37° C. for 30 minutes, 10 ml of 0.05 N NaOH was added to the mixture. The absorbance (405 nm) was determined with a spectrophotometer to determine bone alkaline phosphatase activity of a bone remedy or a compound known to be effective for the bones.\n(§2) A solution of β-cryptoxanthin in corn oil having one of three kinds of concentration (10, 25 and 50 μg/ml corn oil) was orally administered to rats (Wistar male rats; 4 to 5 weeks old) in an amount/100 g body weight with a probe once a day for 7 days. The rats were sacrificed 24 hours after the final administration. The femurs were excised. The muscles, etc. were taken out and each femur was divided into diaphysis and metaphysis to determine the bone components.\n(§3) Tests were conducted to examine whether the bone components are increased by the oral administration of β-cryptoxanthin to rats or not. β-cryptoxanthin was administered for 7 days (10, 25 or 50 μg/100 g body weight/day) and then calcium level in the bone tissue, determination of alkaline phosphatase activity (enzyme for the acceleration of the calcification of bones) and the amount of deoxyribonucleic acid (DNA: index of the number of the cells in the bone tissue) were determined by the same methods as those in Example 1. In each test group, the determination was conducted 6 times and the results were represented by the average value and the standard error. The significant difference was determined by Student's t-test. The result was compared with that of the control. When P value was not higher than 0.01 (*) as compared with the control, the results were statistically significant."}, "[2]": {"tested_on": "diaphysis tissue of the femur (cortical bone)", "test": "Bone alkaline phosphatase activity in cultured femoral diaphysis tissue pieces", "assay_type": "cell-based, Wistar male rats", "conditions": "for Bone alkaline phosphatase activity: diaphysis tissue, mean ± SE", "procedure": "(§4) The femurs were extracted from rats (Wistar male rats; 4 to 5 weeks old) (purchased from Japan SLC Co., Ltd. and fed with solid Oriental yeast (MF)) under anesthesia with ether under a germfree condition. The femurs were each washed with 0.25 M sucrose solution, and then divided into the diaphysis (cortical bone) and metaphysis (cancellous bone). The bone tissue pieces were cultured in a culture medium (Dulbecco's modified culture medium containing 5% of glucose; serum-free medium) containing. β-cryptoxanthin, etc. at […] in an incubator filled with 5% CO2-95% air for 48 hours. β-cryptoxanthin used was “β-cryptoxanthin” of Extrasynthase Co., cycloheximide used was “Cycloheximide” of Sigma Co. Ltd., β-carotene was “β-carotene” of Sigma ? , xanthine was “Xanthine” of Sigma Co, Ltd., parathormone was “Parathormone” of Sigma Co. Ltd. and prostaglandin E2 was “Prostaglandin E2” of Sigma Co. Ltd. In the control, only the culture medium was used without β-cryptoxanthin or the like.\nas §1\n(§5) The bone component-increasing effect of β-cryptoxanthin was examined. The diaphysis and metaphysis tissue of the femur was cultured in the above-described culture medium containing β-cryptoxanthin (10^−5 to 10^−5 M) for 48 hours. Calcium level in the bone tissue, alkaline phosphatase activity (enzyme for accelerating the bone calcification) and the amount of deoxyribonucleic acid (DNA; index of number of cells in the bone tissue) were determined by the same methods as in Example 1. In each test group, the determination vas conducted 6 to 8 times and the results were represented by the average value and the standard error. The significant difference was determined by Student's t-test. The result was compared with that of the control. When P value was not higher than 0.01 (**) or not higher than 0.05 (*), the results were statistically significant."}, "[3]": {"tested_on": "diaphysis tissue of the femur (cortical bone)", "test": "Bone calcium level in cultured femoral diaphysis tissue pieces", "assay_type": "cell-based, Wistar male rats", "conditions": "for Bone calcium level: diaphysis tissue, mean ± SE", "procedure": "as §4\n(§6) Bone calcium level in the bone tissue was determined. After the culture in the incubator, the tissue pieces were washed with 0.25 M sucrose solution and dried and then the bone was weighed. Then concentrated nitric acid was added to the tissue pieces. After the incineration at 120° C. for 12 hours, the bone calcium level was determined with an atomic absorption photometer (“Perkin-Elmer 303” of Perkin-Elmer Co.).\nas §5"}, "[4]": {"tested_on": "metaphysis tissue of the femur (cancellous bone)", "test": "Bone calcium level in cultured femoral metaphysis tissue pieces", "assay_type": "cell-based, Wistar male rats", "conditions": "for Bone calcium level: metaphysis tissue, mean ± SE", "procedure": "as §4, §6\nas §5, with “The diaphysis and metaphysis tissue of the femur was cultured in the above-described culture medium containing β-cryptoxanthin (10^−5 to 10^−5 M) for 48 hours.” left out"}, "[5]": {"tested_on": "rats, femoral metaphysis tissue", "test": "Oral administration to rats: bone calcium level in metaphysis tissue", "assay_type": "in vivo, Wistar male rats", "conditions": "for Bone calcium level: metaphysis tissue", "procedure": "as §6, §2, §3"}, "[6]": {"conditions": "10, 25 or 50 μg/100 g body weight/day, 7 days"}, "[7]": {"conditions": "oral 10 μg/100 g body weight/day for 7 days"}, "[8]": {"conditions": "oral 25 μg/100 g body weight/day for 7 days"}, "[9]": {"conditions": "oral 50 μg/100 g body weight/day for 7 days"}, "[10]": {"conditions": "Table 2 (protein synthesis inhibitor experiment), 10^−6 M (each agent), n=6"}, "[11]": {"conditions": "β-cryptoxanthin 10^−6 M with cycloheximide"}, "[12]": {"conditions": "10^−8 to 10^−5 M, 48 h culture, vs control"}}, "note": "Marks after values point to notes of the source that are not given here.", "data": [{"smiles": "CC1=C(/C=C/C(C)=C/C=C/C(C)=C/C=C/C=C(C)/C=C/C=C(C)/C=C/C2=C(C)C[C@@H](O)CC2(C)C)C(C)(C)CCC1", "note": "[β-cryptoxanthin]", "values": [{"measurement": "Effect on alkali phosphatase activity in the metaphysis tissue after oral administration (in words)", "setting": "[1]; [6]", "result": "significantly increased"}, {"measurement": "Bone alkaline phosphatase activity", "setting": "[1]; [7]", "result": "2.21 ± 0.023* μmol/min/mg protein"}, {"measurement": "Bone alkaline phosphatase activity", "setting": "[1]; [8]", "result": "2.545 ± 0.029* μmol/min/mg protein"}, {"measurement": "Bone alkaline phosphatase activity", "setting": "[1]; [9]", "result": "1.92 ± 0.015* μmol/min/mg protein"}, {"measurement": "Effect on alkaline phosphatase activity in the diaphysis (in words)", "setting": "[2]; 10^−7 to 10^−5 M, 48 h culture, vs control", "result": "significantly increased"}, {"measurement": "Bone alkaline phosphatase activity", "setting": "[2]; [10]", "result": "691.5 ± 11.2* nmol/min/mg protein"}, {"measurement": "Bone alkaline phosphatase activity", "setting": "[2]; 10^−5 M, 48 h culture", "result": "644.6 ± 15.2** nmol/min/mg protein"}, {"measurement": "Bone alkaline phosphatase activity", "setting": "[2]; 10^−6 M, 48 h culture", "result": "684.0 ± 17.7** nmol/min/mg protein"}, {"measurement": "Bone alkaline phosphatase activity", "setting": "[2]; 10^−7 M, 48 h culture", "result": "604.2 ± 9.6* nmol/min/mg protein"}, {"measurement": "Bone alkaline phosphatase activity", "setting": "[2]; 10^−8 M, 48 h culture", "result": "568.5 ± 9.5", "unit": "nmol/min/mg protein"}, {"measurement": "Bone alkaline phosphatase activity in diaphysis tissue increased by β-cryptoxanthin: change in the presence of cycloheximide (in words)", "setting": "[2]; [11]", "result": "significantly lowered"}, {"measurement": "Effect on calcium level in the diaphysis tissue (in words)", "setting": "[3]; [12]", "result": "significant increase"}, {"measurement": "Bone calcium level", "setting": "[3]; [10]", "result": "275.1 ± 4.50* mg/g dry weight"}, {"measurement": "Bone calcium level", "setting": "[3]; 10^−5 M, 48 h culture", "result": "291.7 ± 2.29** mg/g dry weight"}, {"measurement": "Bone calcium level", "setting": "[3]; 10^−6 M, 48 h culture", "result": "272.2 ± 3.15** mg/g dry weight"}, {"measurement": "Bone calcium level", "setting": "[3]; 10^−7 M, 48 h culture", "result": "269.9 ± 6.26** mg/g dry weight"}, {"measurement": "Bone calcium level", "setting": "[3]; 10^−8 M, 48 h culture", "result": "249.6 ± 3.33** mg/g dry weight"}, {"measurement": "Calcium level in diaphysis tissue increased by β-cryptoxanthin: change in the presence of cycloheximide (in words)", "setting": "[3]; [11]", "result": "significantly lowered"}, {"measurement": "Effect on calcium level in the metaphysis tissue (in words)", "setting": "[4]; [12]", "result": "significant increase"}, {"measurement": "Bone calcium level", "setting": "[4]; [10]", "result": "220.0 ± 3.25* mg/g dry weight"}, {"measurement": "Bone calcium level", "setting": "[4]; 10^−5 M, 48 h culture", "result": "213.5 ± 5.59** mg/g dry weight"}, {"measurement": "Bone calcium level", "setting": "[4]; 10^−6 M, 48 h culture", "result": "216.8 ± 2.84** mg/g dry weight"}, {"measurement": "Bone calcium level", "setting": "[4]; 10^−7 M, 48 h culture", "result": "223.6 ± 9.27** mg/g dry weight"}, {"measurement": "Bone calcium level", "setting": "[4]; 10^−8 M, 48 h culture", "result": "204.7 ± 6.40** mg/g dry weight"}, {"measurement": "Calcium level in metaphysis tissue increased by β-cryptoxanthin: change in the presence of cycloheximide (in words)", "setting": "[4]; [11]", "result": "significantly lowered"}, {"measurement": "Effect on calcium level in the metaphysis tissue after oral administration (in words)", "setting": "[5]; [6]", "result": "significantly increased"}, {"measurement": "Bone calcium level", "setting": "[5]; [7]", "result": "201.5 ± 5.60* mg/g dry weight"}, {"measurement": "Bone calcium level", "setting": "[5]; [8]", "result": "200.3 ± 3.90* mg/g dry weight"}, {"measurement": "Bone calcium level", "setting": "[5]; [9]", "result": "205.9 ± 4.10* mg/g dry weight"}]}]}
